{"source": "patent US20160074480A1", "about": "“INNOVATIVE METHODS OF TREATMENTING TUBERCULOSIS” (priority 2015, published 2016)", "key": {"M. tuberculosis": {"system": "M. tuberculosis", "settings": "added to or substituted in isoniazid, rifampicin and pyrazinamide triple therapy; cited from earlier work"}, "[1]": {"settings": "in vivo; cited from earlier work"}, "pulmonary tuberculosis": {"system": "pulmonary tuberculosis", "settings": "given alone; cited from earlier work"}, "[2]": {"settings": "2 mg/kg; amikacin 450 mg/kg; cited from earlier work"}, "tuberculosis bacteria": {"system": "tuberculosis bacteria", "settings": "treated for 3 days, versus untreated sample; cited from earlier work"}, "latent tuberculosis": {"system": "latent tuberculosis", "settings": "taken daily for 9 months; cited from earlier work"}, "[3]": {"system": "Mycobacterium tuberculosis growth", "settings": "cited from earlier work"}, "[4]": {"system": "MCF-7 Human Breast Cancer Cells", "settings": "insulin with methotrexate; cited from earlier work"}, "[5]": {"assay": "Finger stick blood sugar after insulin", "type": "in vivo, human", "settings": "10 minutes after 5-10 units subcutaneously or IV", "experimental": "Blood sugar was tested by using finger stick. We administered 5-10 units of homolog (rapid acting) insulin subcutaneously or IV slowly depending on the blood sugar levels. The glucose was checked 10 minutes later. It has dropped to ±40 mg %."}}}
{"molecule": "COc1nc2ccc(Br)cc2cc1[C@@H](c1ccccc1)[C@@](O)(CCN(C)C)c1cccc2ccccc12", "note": "[R-207910, Bedaquiline]", "values": [{"measurement": "effectiveness of treatment", "setting": "M. tuberculosis", "value": "increased the effectiveness"}]}
{"molecule": "[H]/N=C(/N)N[C@H]1[C@H](O)[C@@H](O)[C@H](O[C@@H]2O[C@@H](C)[C@](O)(C=O)[C@H]2O[C@@H]2O[C@@H](CO)[C@H](O)[C@@H](O)[C@@H]2NC)[C@@H](N/C(N)=N\\[H])[C@@H]1O", "note": "[Streptomycin]", "values": [{"measurement": "ADVERSE EVENT/CONTRAINDICATION", "setting": "[1]", "value": "Deafness, Contraindicated during pregnancy"}, {"measurement": "immediate mortality", "setting": "pulmonary tuberculosis", "value": "dramatic reduction in immediate mortality"}]}
{"molecule": "CCOC(=O)C1=C[C@]2(CC)CCCN3CCc4c(n1c1ccccc41)[C@@H]32", "note": "[Vinpocetine]", "values": [{"measurement": "hearing loss", "setting": "[2]", "value": "prevented hearing loss"}]}
{"molecule": "NNC(=O)c1ccncc1", "note": "[isoniazid, Isoniazid]", "values": [{"measurement": "ADVERSE EVENT/CONTRAINDICATION", "setting": "[1]", "value": "Peripheral neuropathy"}, {"measurement": "intracellular levels of ferrous ions", "setting": "tuberculosis bacteria", "value": "up to ten times higher"}, {"measurement": "reduction of the risk of active TB", "setting": "latent tuberculosis", "value": "≤ 90", "unit": "%"}]}
{"molecule": "Capreomycin", "values": [{"measurement": "adverse effects stated in the text", "setting": "[1]", "value": "nephrotoxicity and 8th cranial auditory vestibular nerve toxicity"}, {"measurement": "concentration inhibiting growth", "setting": "[3]", "value": 2.5, "unit": "µg/mL"}]}
{"molecule": "insulin: hormone produced in beta cells of pancreas, large polypeptide of A and B chains", "values": [{"measurement": "enhancement of the activity of methotrexate", "setting": "[4]", "value": "10,000 times"}, {"measurement": "blood glucose by finger stick", "setting": "[5]", "value": "~40", "unit": "mg %"}]}
